# Data published in patent US11179383B2 (Gilead Sciences, Inc., priority 2018, dated 2021).
# Molecular target: T1, α4β7 integrin (Homo sapiens, UniProt P13612+P26010)
# T1 construct: monitoring the capture of α4β7 integrin expressing cells on a recombinant MadCAM-1 extracellular domain-coated plate; endogenous in cells; host or cells: RPMI8866 cells
# T1 sequence (P13612 34-1032): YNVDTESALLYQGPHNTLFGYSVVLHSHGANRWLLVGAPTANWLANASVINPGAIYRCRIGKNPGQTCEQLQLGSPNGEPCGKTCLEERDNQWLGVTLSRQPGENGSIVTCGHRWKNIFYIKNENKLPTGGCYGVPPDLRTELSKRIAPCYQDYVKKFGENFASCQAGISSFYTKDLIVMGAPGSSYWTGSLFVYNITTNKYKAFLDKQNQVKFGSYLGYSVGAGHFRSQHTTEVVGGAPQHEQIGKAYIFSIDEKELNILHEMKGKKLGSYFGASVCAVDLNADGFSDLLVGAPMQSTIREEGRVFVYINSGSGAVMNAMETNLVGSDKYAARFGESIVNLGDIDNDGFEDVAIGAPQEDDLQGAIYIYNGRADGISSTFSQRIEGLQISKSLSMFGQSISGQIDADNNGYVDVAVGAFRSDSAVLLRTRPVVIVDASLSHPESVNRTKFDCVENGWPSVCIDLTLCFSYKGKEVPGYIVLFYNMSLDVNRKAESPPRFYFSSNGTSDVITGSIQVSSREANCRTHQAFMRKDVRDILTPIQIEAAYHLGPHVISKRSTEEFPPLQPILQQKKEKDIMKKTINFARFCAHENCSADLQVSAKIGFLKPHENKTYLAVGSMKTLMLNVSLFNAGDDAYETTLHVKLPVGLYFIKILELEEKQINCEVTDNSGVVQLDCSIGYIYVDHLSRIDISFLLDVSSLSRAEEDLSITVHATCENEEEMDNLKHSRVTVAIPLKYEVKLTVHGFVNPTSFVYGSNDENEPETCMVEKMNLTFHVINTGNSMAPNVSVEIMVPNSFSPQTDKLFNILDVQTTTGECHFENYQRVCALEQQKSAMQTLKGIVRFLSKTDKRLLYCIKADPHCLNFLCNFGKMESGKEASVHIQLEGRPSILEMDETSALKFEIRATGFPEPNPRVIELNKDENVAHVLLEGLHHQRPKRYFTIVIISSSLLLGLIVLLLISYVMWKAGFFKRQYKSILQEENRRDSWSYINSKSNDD
# T1 sequence (P26010 20-798): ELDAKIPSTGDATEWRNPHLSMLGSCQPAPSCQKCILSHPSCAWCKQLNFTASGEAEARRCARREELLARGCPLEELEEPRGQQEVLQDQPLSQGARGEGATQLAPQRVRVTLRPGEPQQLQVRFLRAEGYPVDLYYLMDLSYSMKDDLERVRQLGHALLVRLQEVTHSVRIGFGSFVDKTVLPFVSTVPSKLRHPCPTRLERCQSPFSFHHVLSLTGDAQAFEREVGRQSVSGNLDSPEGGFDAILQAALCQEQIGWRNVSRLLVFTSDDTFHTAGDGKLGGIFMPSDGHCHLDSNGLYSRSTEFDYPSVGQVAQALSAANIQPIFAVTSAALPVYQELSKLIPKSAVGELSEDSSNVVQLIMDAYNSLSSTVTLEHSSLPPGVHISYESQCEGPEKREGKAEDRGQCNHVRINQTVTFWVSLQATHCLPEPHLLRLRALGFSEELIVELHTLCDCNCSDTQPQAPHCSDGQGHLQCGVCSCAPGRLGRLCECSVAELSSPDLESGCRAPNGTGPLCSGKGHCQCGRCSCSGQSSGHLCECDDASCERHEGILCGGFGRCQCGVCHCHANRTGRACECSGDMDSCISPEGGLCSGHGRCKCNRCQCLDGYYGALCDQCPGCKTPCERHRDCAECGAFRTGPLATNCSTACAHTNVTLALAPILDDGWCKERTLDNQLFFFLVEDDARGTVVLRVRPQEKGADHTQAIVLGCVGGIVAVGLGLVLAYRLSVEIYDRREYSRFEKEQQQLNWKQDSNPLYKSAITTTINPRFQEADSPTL
# Test: α4β7 Integrin Cell Capture Assay
# Assay type: cell-based
# Settings: capture of α4β7 integrin expressing RPMI8866 cells on recombinant MadCAM-1 extracellular domain-coated plate; DMEM+0.5% FBS+0.5 mM MnCl2; read-out: EC50 α4β7
# Outline: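 RPMI8866 cells in DMEM + 0.5% FBS + 0.5 mM MnCl2 preincubated with compound 1 h at 37 °C, then allowed to bind 30 min at 37 °C to plates coated with MAdCAM-1 extracellular domain (1.0 μg/mL). Cells fixed with glutaraldehyde, Hoechst-stained, imaged and bound cells counted; EC50 from cell count versus concentration.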
row,Compound,EC50 [nM]
1,"O=C(N[C@@H](Cc1ccc(-c2ncc3ccccc3c2Br)c2ccccc12)C(=O)O)c1c(F)cccc1F [Example 114, (S)-3-(4-(4-bromoisoquinolin-3-yl)naphthalen-1-yl)-2-(2,6-difluorobenzamido)propanoic acid]",29.9
2,"O=C(N[C@@H](Cc1ccc(-c2cc(F)c(F)cc2OC2CC2)c2ccccc12)C(=O)O)c1c(Cl)cccc1Cl [Example 116, (S)-3-(4-(2-cyclopropoxy-4,5-difluorophenyl)naphthalen-1-yl)-2-(2,6-dichlorobenzamido)propanoic acid]",72.6
3,"Cn1c(=O)c(-c2ccc(C[C@H](NC(=O)c3c(Cl)cccc3Cl)C(=O)O)c3ccccc23)c(C(F)(F)F)c2ccccc21 [Example 121, (S)-2-(2,6-dichlorobenzamido)-3-(4-(1-methyl-2-oxo-4-(trifluoromethyl)-1,2-dihydroquinolin-3-yl)naphthalen-1-yl)propanoic acid]",3.9
4,Cc1ccnc(-c2ccc(C[C@H](NC(=O)c3c(F)cc(N4CCOC[C@@H]4C(F)(F)F)cc3F)C(=O)O)c3ccccc23)c1C(F)(F)F [Example 122],1.1
5,"CC[C@@H](Nc1cc(F)c(C(=O)N[C@@H](Cc2ccc(-c3c(C)n(C)c(=O)n(C)c3=O)c3ccccc23)C(=O)O)c(F)c1)C(F)(F)F [Example 139, (S)-2-(2,6-difluoro-4-(((R)-1,1,1-trifluorobutan-2-yl)amino)benzamido)-3-(4-(1,3,6-trimethyl-2,4-dioxo-1,2,3,4-tetrahydropyrimidin-5-yl)naphthalen-1-yl)propanoic acid]",0.4
6,"CCOCc1cc(OC)c(-c2ccc(CC(NC(=O)c3c(F)cc(NS(=O)(=O)c4ccc(-c5ccnc(F)c5)cc4)cc3F)C(=O)O)c3c2cnn3C)c(OC)c1 (centres unmarked) [Example 143, 2-(2,6-difluoro-4-((4-(2-fluoropyridin-4-yl)phenyl)sulfonamido)benzamido)-3-(4-(4-(ethoxymethyl)-2,6-dimethoxyphenyl)-1-methyl-1H-indazol-7-yl)propanoic acid]",30.2
7,"CCOCc1cc(OC)c(-c2ccc(CC(NC(=O)c3c(F)cc(NS(=O)(=O)c4ccc(-c5ccnc(F)c5)cc4)cc3F)C(=O)O)c3cnn(C)c23)c(OC)c1 (centres unmarked) [Example 146, 2-(2,6-difluoro-4-((4-(2-fluoropyridin-4-yl)phenyl)sulfonamido)benzamido)-3-(7-(4-(ethoxymethyl)-2,6-dimethoxyphenyl)-1-methyl-1H-indazol-4-yl)propanoic acid]",0.6
8,"CCOCc1cc(OC)c(-c2ccc(C[C@H](NC(=O)c3c(F)cc(NS(=O)(=O)c4ccc(-c5ccnc(F)c5)cc4)cc3F)C(=O)O)c3nsnc23)c(OC)c1 [Example 149, (S)-2-(2,6-difluoro-4-((4-(2-fluoropyridin-4-yl)phenyl)sulfonamido)benzamido)-3-(7-(4-(ethoxymethyl)-2,6-dimethoxyphenyl)benzo[c]-[1,2,5]thiadiazol-4-yl)propanoic acid]",0.3
9,"O=C(N[C@@H](Cc1ccc(-c2c(Cl)cc(F)cc2Cl)c2nsnc12)C(=O)O)c1c(F)cccc1F [Example 150, (S)-3-(7-(2,6-dichloro-4-fluorophenyl)benzo[c][1,2,5]thiadiazol-4-yl)-2-(2,6-difluorobenzamido)propanoic acid]",181
10,"CCOCc1cc(OC)c(-c2ccc(C[C@H](NC(=O)c3c(F)cc(NS(=O)(=O)c4ccc(-c5ccnc(F)c5)cc4)cc3F)C(=O)O)c3nc(C)oc23)c(OC)c1 [Example 151, (S)-2-(2,6-difluoro-4-((4-(2-fluoropyridin-4-yl)phenyl)sulfonamido)benzamido)-3-(7-(4-(ethoxymethyl)-2,6-dimethoxyphenyl)-2-methylbenzo[d]oxazol-4-yl) propanoic acid]",5.8
11,"CCOCc1cc(OC)c(-c2ccc(C[C@H](NC(=O)c3c(F)cccc3F)C(=O)O)c3nc(C)oc23)c(OC)c1 [Example 152, (S)-2-(2,6-difluorobenzamido)-3-(7-(4-(ethoxymethyl)-2,6-dimethoxyphenyl)-2-methylbenzo[d]oxazol-4-yl)propanoic acid]",57.8
12,"CCOCc1cc(OC)c(-c2ccc(C[C@H](NC(=O)c3c(Cl)cccc3Cl)C(=O)O)c3nc(C)oc23)c(OC)c1 [Example 153, (S)-2-(2,6-dichlorobenzamido)-3-(7-(4-(ethoxymethyl)-2,6-dimethoxyphenyl)-2-methylbenzo[d]oxazol-4-yl)propanoic acid]",28.4

# Continued by falling EC50, values first:
row,EC50 [nM],Compound
1,21.7,"O=C(N[C@@H](Cc1ccc(-c2ncc3ccccc3c2C(F)(F)F)c2ccccc12)C(=O)O)c1c(Cl)cccc1Cl [Example 115, (S)-2-(2,6-dichlorobenzamido)-3-(4-(4-(trifluoromethyl)isoquinolin-3-yl)naphthalen-1-yl)propanoic acid]"
2,12.3,"O=C(N[C@@H](Cc1ccc(-c2ncc3ccccc3c2Br)c2ccccc12)C(=O)O)c1c(Cl)cccc1Cl [Example 113, (S)-3-(4-(4-bromoisoquinolin-3-yl)naphthalen-1-yl)-2-(2,6-dichlorobenzamido) propanoic acid]"
3,10.2,"CC[C@@H](Nc1cc(F)c(C(=O)N[C@@H](Cc2ccc(-c3nccc(C)c3C(F)(F)F)c3ccccc23)C(=O)O)c(F)c1)C(F)(F)F [Example 123, (S)-2-(2,6-difluoro-4-(((R)-1,1,1-trifluorobutan-2-yl)amino)benzamido)-3-(4-(4-methyl-3-(trifluoromethyl)pyridin-2-yl)naphthalen-1-yl)propanoic acid]"
4,4.9,CCOCc1cc(OC)c(-c2ccc(C[C@H](NC(=O)c3c(F)cc(NS(=O)(=O)c4ccc(-c5ccnc(F)c5)cc4)cc3F)C(=O)O)c3c2cnn3C)c(OC)c1 [Example 144]
5,3.6,"Cc1cnc(-c2ccc(C[C@H](NC(=O)c3c(F)cc(N4CCOC[C@@H]4C(F)(F)F)cc3F)C(=O)O)c3ccccc23)nc1C [Example 141, (S)-2-(2,6-difluoro-4-((R)-3-(trifluoromethyl)morpholino)benzamido)-3-(4-(4,5-dimethylpyrimidin-2-yl)naphthalen-1-yl)propanoic acid]"
6,0.5,CC[C@@H](Nc1cc(F)c(C(=O)N[C@@H](Cc2ccc(-c3cc4cnccc4n(C)c3=O)c3ccccc23)C(=O)O)c(F)c1)C(F)(F)F [Example 142]
7,0.3,"Cc1c(-c2ccc(C[C@H](NC(=O)c3c(F)cc(N4CCOC[C@@H]4C(F)(F)F)cc3F)C(=O)O)c3ccccc23)c(=O)n(C)c(=O)n1C [Example 138, (S)-2-(2,6-difluoro-4-((R)-3-(trifluoromethyl)morpholino)benzamido)-3-(4-(1,3,6-trimethyl-2,4-dioxo-1,2,3,4-tetrahydropyrimidin-5-yl)naphthalen-1-yl)propanoic acid]"
8,0.1,"Cn1c(=O)c(-c2ccc(C[C@H](NC(=O)c3c(F)cc(N4CCOC[C@@H]4C(F)(F)F)cc3F)C(=O)O)c3ccccc23)cc2cnccc21 [Example 140, (S)-2-(2,6-difluoro-4-((R)-3-(trifluoromethyl)morpholino)benzamido)-3-(4-(1-methyl-2-oxo-1,2-dihydro-1,6-naphthyridin-3-yl)naphthalen-1-yl)propanoic acid]"
